# Experimental data taken from patent US20190375837A1, “IMMUNOCYTOKINE COMBINATION THERAPY” (priority 2017, published 2019).
# Like-named read-outs stand apart in the source and are kept apart here.
# How the values were obtained:
# [1] = tested on: renal cell carcinoma; details: 18 patients with renal cell carcinoma; cited from earlier work
# [2] = tested on: SKRC-52 renal cell carcinoma; test: Tumor rechallenge of cured mice with SKRC-52, then treatment of regrowing tumors; assay type: in vivo, BALB/c nu/nu mice; details: L19-IL2 2.5 mg/Kg alone; 3 mice
# Description: To determine whether the CAIX ligand armed with MMAE (compound 2, see example 1) in combination with L19-IL2 caused acquired protective immunity against the tumor, mice that were cured in the therapy experiment of Example 2 were injected with 5×10^6 cells (100 μl of a suspension) SKRC-52 cells/mouse 20 days after the treatment ended. […] Mice were rearranged in two groups and treated with either the compound 2 alone (250 nmol/Kg; 2 mice), or L19-IL2 (2.5 mg/Kg; 3 mice) alone (see the schedule in FIGS. 4A and 4B).
# [3] = tested on: SKRC-52 renal cell carcinoma; test: Tumor therapy in SKRC-52 xenografts: compound 2 with L19-IL2; assay type: in vivo, BALB/c nu/nu mice; details: day 17 after tumor implantation; compound 2 250 nmol/kg IV, L19-IL2 2.5 mg/Kg IV, single or combined
# From the text: Animals were sacrificed when the termination criteria were reached.
# [4] = tested on: SKRC-52 xenografts; test: in vivo; parameters: species or system BALB/c nu/nu mice; details: mouse, iv
# Description: (§1) Radiolabeling procedures with technetium-99m were performed following described procedures (Krall N, Pretto F, Mattarella M, Muller C, Neri D. A technetium 99m-labeled ligand of carbonic anhydrase IX selectively targets renal cell carcinoma in vivo. J Nucl Med 2016; and Cazzamalli S, Dal Corso A, Neri D. Acetazolamide serves as selective delivery vehicle for dipeptide-linked drugs to renal cell carcinoma. Mol Cancer Ther 2016). Briefly, compounds 8, 9 and 10 (60 nmol) in TBS pH 7.4 (50 μl) were separately mixed with SnCl2 (Sigma Aldrich, 200 μg) and sodium glucoheptonate (TCI, 20 mg) in H2O (150 μl). Tris-buffered saline at pH 7.4 (600 μl) was added and the resulting solution degassed for 5 min by bubbling with nitrogen gas. The eluate from a ^99mTc-generator (200 μl, ca. 200 MBq, Mallinckrodt) was added and the reaction mixture heated to 90° C. for 20 min After cooling to room temperature, analytic aliquots were analyzed by RP-HPLC (XTerra C18, 5% MeCN in 0.1% aq. TFA to 80% over 20 min on a Merck-Hitachi D-7000 HPLC system equipped with a Raytest Gabi Star radiodetector) to determine radiolabelling yields. ^99mTc incorporations >95% were routinely achieved.
# (§2) Mice were randomized (n=3 per group) and injected intravenously with radiolabelled preparations of compounds 8, 9 or 10 (1-3 MBq, 30 nmol/Kg). Mice were sacrificed 6 hours after the injection by CO2 asphyxiation and organs extracted, weighted and radioactivity measured with a Packard Cobra γ-counter. Values are expressed as % ID/g ±SD (FIG. 10B).
# [5] = in vivo; parameters: species or system BALB/c nu/nu mice; details: female, BALB/c nu/nu, mouse, iv, 30 nmol/kg, total radioactivity
# Description: as §1, §2
# [6] = tested on: SKRC-52 renal cell carcinoma; details: for anti-cancer activity compared to vehicle: 250 nmol/Kg IV per administration, n=4 per group, p<0.0001 for compounds 2 and 4; for tumor growth retardation compared with the other SMDCs: compound 2 vs compound 4
# Description: SKRC-52 cells were grown to 80% confluence and detached with Trypsin-EDTA 0.05% (Life Technologies). Cells were washed with Hank's Balanced Salt Solution (HBSS, pH 7.4) once, counted and re-suspended in HBSS to a final concentration of 5×10^7 cells/ml. Aliquots of 5×10^6 cells (100 μl of a suspension) were injected subcutaneously in the right flank of female athymic BALB/c nu/nu mice (6-8 weeks of age, Janvier).
# [7] = in vivo; details: nude, mouse
compound,measurement,setting,value
"L19-IL2: immunocytokine in which the anti-EDB antibody L19 (scFv) is conjugated to IL-2, SEQ ID NO: 22",objective responses,[1],no objective responses
same,second complete tumor regression of regrowing tumors,[2],second complete tumor regression for all 3 animals
same,antitumor activity (FIG. 3),[3],Potent antitumor activity
"CC(CCC(=O)N[C@@H](CC(=O)N[C@@H](CC(=O)N[C@@H](CCCCn1cc(CCCC(=O)Nc2nnc(S(N)(=O)=O)s2)nn1)C(=O)NCCCC[C@H](N)C(=O)N[C@@H](CC(=O)O)C(=O)N[C@@H](CS)C(=O)O)C(=O)O)C(=O)O)(c1ccc(O)cc1)c1ccc(O)cc1 [compound 8, AAZ*-^99mTc Chelator, metal not drawn]",tumor to blood ratio,[4],80:1
same,tissue uptake at 6 h,[5],40 %ID/g
"N[C@@H](CCCCNC(=O)[C@H](CC(=O)O)NC(=O)CCCCn1cc(CCCC(=O)Nc2nnc(S(N)(=O)=O)s2)nn1)C(=O)N[C@@H](CC(=O)O)C(=O)N[C@@H](CS)C(=O)O [compound 9, AAZ-^99mTc Chelator, metal not drawn, reference compound]",tissue uptake at 6 h,[5],18 %ID/g
"CC[C@H](C)[C@@H]([C@@H](CC(=O)N1CCC[C@H]1[C@H](OC)[C@@H](C)C(=O)N[C@H](C)[C@@H](O)c1ccccc1)OC)N(C)C(=O)[C@@H](NC(=O)[C@H](C(C)C)N(C)C(=O)OCc1ccc(NC(=O)[C@H](CCCNC(N)=O)NC(=O)[C@@H](NC(=O)CCCCCN2C(=O)CC(SC[C@H](NC(=O)[C@H](CC(=O)O)NC(=O)[C@H](CCCNC(=N)N)NC(=O)[C@H](CC(=O)O)NC(=O)[C@H](CCCCn3cc(CCCC(=O)Nc4nnc(S(N)(=O)=O)s4)nn3)NC(=O)C[C@H](NC(=O)C[C@H](NC(=O)CCC(C)(c3ccc(O)cc3)c3ccc(O)cc3)C(=O)O)C(=O)O)C(=O)O)C2=O)C(C)C)cc1)C(C)C (stereo partly shown) [compound 2, AAZ*-ValCit-MMAE]",durable complete response,[6]; 250 nmol/Kg IV,no mice had a durable complete response
same,"tolerability (body weight changes, FIG. 9B)",[6]; 250 nmol/Kg IV,very well tolerated
same,anti-cancer activity compared to vehicle,[6],potent anti-cancer activity
same,tumor growth retardation compared with the other SMDCs,[6]; 250 nmol/Kg IV,most potent tumor growth retardation effect
same,tumor growth retardation compared with the other SMDCs,"[6]; 250 nmol/Kg IV, listed as SMDC 2",superior antitumor activity
same,therapeutic efficacy after presaturation with excess of free AAZ* (compound 7),[6]; 50-fold dose of AAZ* ligand (1.25 μmol/Kg) directly followed by compound 2 250 nmol/Kg,reduced significantly
same,MTD,[7],0.25 µmol/kg
same,antitumor activity (FIG. 3),[3],Potent antitumor activity
"CC[C@H](C)[C@@H]([C@@H](CC(=O)N1CCC[C@H]1[C@H](OC)[C@@H](C)C(=O)N[C@H](C)[C@@H](O)c1ccccc1)OC)N(C)C(=O)[C@@H](NC(=O)[C@H](C(C)C)N(C)C(=O)OCc1ccc(NC(=O)[C@H](CCCNC(N)=O)NC(=O)[C@@H](NC(=O)CCCCCN2C(=O)CC(SC[C@H](NC(=O)[C@H](CC(=O)O)NC(=O)[C@H](CCCNC(=N)N)NC(=O)[C@H](CC(=O)O)NC(=O)CCCCn3cc(CCCC(=O)Nc4nnc(S(N)(=O)=O)s4)nn3)C(=O)O)C2=O)C(C)C)cc1)C(C)C (stereo partly shown) [compound 4, AAZ-ValCit-MMAE, reference compound]",anti-cancer activity compared to vehicle,[6],potent anti-cancer activity
"CC[C@H](C)[C@@H]([C@@H](CC(=O)N1CCC[C@H]1[C@H](OC)[C@@H](C)C(=O)N[C@H](C)[C@@H](O)c1ccccc1)OC)N(C)C(=O)[C@@H](NC(=O)[C@H](C(C)C)N(C)C(=O)OCc1ccc(NC(=O)[C@H](CCCNC(N)=O)NC(=O)[C@@H](NC(=O)CCCCCN2C(=O)CC(SC[C@H](NC(=O)[C@H](CC(=O)O)NC(=O)[C@H](CCCNC(=N)N)NC(=O)[C@H](CC(=O)O)NC(=O)[C@H](CCCCn3cc(CCCC(N)=O)nn3)NC(=O)C[C@H](NC(=O)C[C@H](NC(=O)CCC(C)(c3ccc(O)cc3)c3ccc(O)cc3)C(=O)O)C(=O)O)C(=O)O)C2=O)C(C)C)cc1)C(C)C (stereo partly shown) [compound 6, NH2^+-ValCit-MMAE]",anti-cancer activity compared to vehicle,[6],did not display a difference from the vehicle-treated group
